Test results from patent US20250282785A1, “PYRROLIDINONE DERIVATIVES AS INHIBITORS OF NF KAPPA B INDUCING KINASE” (priority 2022, published 2025).
Read-outs that look alike come from different tables or passages of the source.

Key:
[1] = target: Recombinant Human NF-Kappab-Inducing Kinase (NIK/MAP3K14) (Homo sapiens, UniProt Q99558); test: Inhibition of auto-phosphorylation of recombinant human NIK/MAP3K14 (AlphaScreen); format: biochemical
How it was run: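 GST-tagged NIK (1 nM) auto-phosphorylation with 5 µM ATP in Tris pH 7.5/MgCl2 buffer, 0.7% DMSO, 2 h at 25 °C. Phospho-IKK Ser176/180 antibody detected by AlphaScreen beads. Signal normalized to full-enzyme and no-ATP controls; IC50 from sigmoidal fit of % inhibition vs log concentration.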

[2] = test system: p-IKKα levels in L363 (NIK translocated multiple myeloma) cells; test: Effect of compounds on p-IKKα levels in L363 cells (AlphaLISA SureFire Ultra); format: cell-based; conditions: Homo sapiens, read-out: Assay 2 IC50
How it was run: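 L363 myeloma cells were BAFF-stimulated (250 ng/ml) overnight in DMEM/0.5% BSA, then exposed 6 h at 37° C to compound (11-point 1:3 series, 0.3% DMSO) with BAFF plus 10 uM MG132. p-IKKα (Ser 176/180) was read by AlphaLISA SureFire Ultra in lysates. IC50 came from sigmoidal fits normalized to stimulated and unstimulated controls.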

[3] = NIK/MAP3K14 auto-phosphorylation, 5 microM ATP, 1 nM enzyme, 2 h at 25° C., average of values, read-out: Assay 1 IC50
[4] = L-363, L363 cells, BAFF stimulated, MG132, 6 h, average of values

Chain of Recombinant Human NF-Kappab-Inducing Kinase (NIK/MAP3K14) (Q99558 whole entry): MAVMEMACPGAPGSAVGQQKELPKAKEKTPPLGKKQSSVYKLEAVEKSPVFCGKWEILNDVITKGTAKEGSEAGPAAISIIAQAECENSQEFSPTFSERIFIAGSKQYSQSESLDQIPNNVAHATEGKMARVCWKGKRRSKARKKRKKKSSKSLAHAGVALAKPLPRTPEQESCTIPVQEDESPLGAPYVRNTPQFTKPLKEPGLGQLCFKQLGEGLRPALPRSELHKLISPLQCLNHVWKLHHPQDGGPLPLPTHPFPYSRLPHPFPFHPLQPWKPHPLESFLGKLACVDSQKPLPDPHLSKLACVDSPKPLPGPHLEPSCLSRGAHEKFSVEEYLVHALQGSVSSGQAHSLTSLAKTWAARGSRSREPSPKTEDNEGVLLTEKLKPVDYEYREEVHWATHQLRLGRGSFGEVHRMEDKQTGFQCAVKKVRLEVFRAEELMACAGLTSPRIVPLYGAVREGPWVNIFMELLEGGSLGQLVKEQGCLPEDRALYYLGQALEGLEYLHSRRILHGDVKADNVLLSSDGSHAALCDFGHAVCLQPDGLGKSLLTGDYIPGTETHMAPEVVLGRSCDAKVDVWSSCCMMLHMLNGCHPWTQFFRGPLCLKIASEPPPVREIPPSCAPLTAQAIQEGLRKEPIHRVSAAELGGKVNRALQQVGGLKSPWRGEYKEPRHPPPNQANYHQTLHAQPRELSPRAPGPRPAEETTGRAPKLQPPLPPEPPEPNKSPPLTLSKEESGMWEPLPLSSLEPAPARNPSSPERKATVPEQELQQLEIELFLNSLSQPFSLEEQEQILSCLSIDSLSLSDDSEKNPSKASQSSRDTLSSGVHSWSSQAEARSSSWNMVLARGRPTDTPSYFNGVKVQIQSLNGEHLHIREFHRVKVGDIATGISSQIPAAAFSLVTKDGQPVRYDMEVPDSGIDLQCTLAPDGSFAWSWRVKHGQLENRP

Compound	IC50 [1, 3]	IC50 [2, 4]	IC50 [1]	IC50 ([2]; L-363, 6 h)
CN1CC[C@@](O)(c2cc(-c3cccc(-c4nc(C(N)=O)c5[nH]ccc5n4)c3)no2)C1=O [Example 134, (R)-2-(3-(5-(3-Hydroxy-1-methyl-2-oxopyrrolidin-3-yl)isoxazol-3-yl)phenyl)-5H-pyrrolo[3,2-d]pyrimidine-4-carboxamide]	< 100 nM	< 100 nM		
COc1cc(C(N)=O)nc(-c2cc(-c3cc([C@]4(O)CCN(C)C4=O)on3)ccn2)c1 [Example 21, (R)-4′-(5-(3-Hydroxy-1-methyl-2-oxopyrrolidin-3-yl)isoxazol-3-yl)-4-methoxy-[2,2′-bipyridine]-6-carboxamide]	< 100 nM	> 501 nM		
CN1CC[C@@](O)(c2cc(-c3cccc(-c4nc(C(N)=O)c5n4CCN(CCC(F)(F)F)C5)c3)no2)C1=O [Example 232, (R)-3-(3-(5-(3-Hydroxy-1-methyl-2-oxopyrrolidin-3-yl)isoxazol-3-yl)phenyl)-7-(3,3,3-trifluoropropyl)-5,6,7,8-tetrahydroimidazo[1,5-a]pyrazine-1-carboxamide]	> 501 nM	> 501 nM		
CN1CC[C@@](O)(c2cc(-c3cccc(-c4cc5c(c(C(N)=O)n4)CCCC5)c3)no2)C1=O [Example 124, (R)-3-(3-(5-(3-Hydroxy-1-methyl-2-oxopyrrolidin-3-yl)isoxazol-3-yl)phenyl)-5,6,7,8-tetrahydroisoquinoline-1-carboxamide]	< 100 nM	> 501 nM		
Cc1cn2nc(-c3cccc(-c4cc([C@]5(O)CCN(C)C5=O)on4)c3)ccc2n1 [Example 65, (R)-3-Hydroxy-1-methyl-3-(3-(3-(2-methylimidazo[1,2-b]pyridazin-6-yl)phenyl)isoxazol-5-yl)pyrrolidin-2-one]	> 501 nM	> 501 nM		
CN1CC[C@@](O)(c2cc(-c3cccc(-c4cn5cccc(C(N)=O)c5n4)c3)no2)C1=O [Example 92, (R)-2-(3-(5-(3-Hydroxy-1-methyl-2-oxopyrrolidin-3-yl)isoxazol-3-yl)phenyl) imidazo[1,2-a]pyridine-8-carboxamide]	100 to 500 nM	> 501 nM		
CN1CC[C@](O)(c2cc(-c3cccc(-c4cccc(C(N)=O)n4)c3)no2)C1=O [Example 149, (S)-6-(3-(5-(3-Hydroxy-1-methyl-2-oxopyrrolidin-3-yl)isoxazol-3-yl)phenyl)picolinamide]	> 501 nM	> 501 nM		
CCc1sc(-c2cccc(-c3cc([C@]4(O)CCN(C)C4=O)on3)c2)nc1C(N)=O [Example 218, (R)-5-Ethyl-2-(3-(5-(3-hydroxy-1-methyl-2-oxopyrrolidin-3-yl)isoxazol-3-yl)phenyl)thiazole-4-carboxamide]	< 100 nM	100 to 500 nM		
CN1CC[C@@](O)(c2cc(-c3cccc(-c4nc5c(c(C(N)=O)n4)C4CCC(C5)O4)c3)[nH]n2)C1=O (stereo in doubt) [Example 174, (5R,8S)-2-(3-(5-((R)-3-Hydroxy-1-methyl-2-oxopyrrolidin-3-yl)-1H-pyrazol-3-yl)phenyl)-6,7,8,9-tetrahydro-5H-5,8-epoxycyclohepta[d]pyrimidine-4-carboxamide]	100 to 500 nM	> 501 nM		
CN1CC[C@@](O)(c2cc(-c3cccc(-c4ccc5ncn(C)c5c4)c3)no2)C1=O [Example 62, (R)-3-Hydroxy-1-methyl-3-(3-(3-(1-methyl-1H-benzo[d]imidazol-6-yl)phenyl)isoxazol-5-yl)pyrrolidin-2-one]	> 501 nM	> 501 nM		
CN1CC[C@@](O)(c2cc(-c3cccc(-c4nccc(C(N)=O)n4)c3)no2)C1=O [Example 146, (R)-2-(3-(5-(3-hydroxy-1-methyl-2-oxopyrrolidin-3-yl)isoxazol-3-yl)phenyl)pyrimidine-4-carboxamide]	< 100 nM	> 501 nM		
[2H]C([2H])([2H])N1CC[C@@](O)(c2cc(-c3cccc(-c4nc(C(N)=O)n5c4CCCC5)c3)no2)C1=O [Example 181, (R)-1-(3-(5-(3-Hydroxy-1-(methyl-d3)-2-oxopyrrolidin-3-yl)isoxazol-3-yl)phenyl)-5,6,7,8-tetrahydroimidazo[1,5-a]pyridine-3-carboxamide]	< 100 nM	100 to 500 nM		
CN1CC[C@@](O)(c2cc(-c3cccc(-c4ccn5ncccc45)c3)no2)C1=O [Example 64, (R)-3-Hydroxy-1-methyl-3-(3-(3-(pyrrolo[1,2-b]pyridazin-5-yl)phenyl)isoxazol-5-yl)pyrrolidin-2-one]	> 501 nM	> 501 nM		
COc1ncc(-c2cc(C(N)=O)nc(-c3cccc(-c4cc([C@]5(O)CCN(C)C5=O)on4)c3)c2)s1 [Example 191, (R)-6-(3-(5-(3-Hydroxy-1-methyl-2-oxopyrrolidin-3-yl)isoxazol-3-yl)phenyl)-4-(2-methoxythiazol-5-yl)picolinamide]	< 100 nM	100 to 500 nM		
CC(C)Cc1sc(-c2cccc(-c3cc([C@]4(O)CCN(C)C4=O)on3)c2)nc1C(N)=O [Example 220, (R)-2-(3-(5-(3-Hydroxy-1-methyl-2-oxopyrrolidin-3-yl)isoxazol-3-yl)phenyl)-5-isobutylthiazole-4-carboxamide]			< 100 nM	> 501 nM
[2H]c1nc(N)c2nc(-c3cccc(-c4cc([C@]5(O)CCN(C)C5=O)nn4C)c3)ccc2n1 (single isomer, unassigned) [Example 43]	100 to 500 nM	> 501 nM		
Cc1nc(N)c2nc(-c3cc(-c4cc([C@]5(O)CCN(C)C5=O)on4)ccn3)ccc2n1 [Example 170, (R)-3-(3-(2-(4-Amino-2-methylpyrido[3,2-d]pyrimidin-6-yl)pyridin-4-yl)isoxazol-5-yl)-3-hydroxy-1-methylpyrrolidin-2-one]	< 100 nM	> 501 nM		
CN1CC[C@@](O)(c2cc(-c3cccc(-c4ccc5ncnc(N6CCC6)c5n4)c3)no2)C1=O [Example 11, (R)-3-(3-(3-(4-(Azetidin-1-yl)pyrido[3,2-d]pyrimidin-6-yl)phenyl)isoxazol-5-yl)-3-hydroxy-1-methylpyrrolidin-2-one]	< 100 nM	> 501 nM		
CN1CC[C@@](O)(c2cc(-c3cccc(-c4ncc(Nc5cnn(CC(F)(F)F)c5)c(C(N)=O)n4)c3)no2)C1=O [Example 145, (R)-2-(3-(5-(3-Hydroxy-1-methyl-2-oxopyrrolidin-3-yl)isoxazol-3-yl)phenyl)-5-((1-(2,2,2-trifluoroethyl)-1H-pyrazol-4-yl)amino)pyrimidine-4-carboxamide]	< 100 nM	< 100 nM		
CN1CC[C@@](O)(c2cc(-c3cccc(-c4ccc(C(N)=O)o4)c3)no2)C1=O [Example 207, (R)-5-(3-(5-(3-Hydroxy-1-methyl-2-oxopyrrolidin-3-yl)isoxazol-3-yl)phenyl)furan-2-carboxamide]	< 100 nM	> 501 nM		
[2H]c1nc(N)c2nc(-c3cccc(-c4nc([C@]5(O)CCN(C)C5=O)co4)c3)ccc2n1 (single isomer, unassigned) [Example 41]	> 501 nM	> 501 nM		
Cc1ncc(-c2cc(C(N)=O)nc(-c3cccc(-c4cc([C@]5(O)CCN(C)C5=O)on4)c3)c2)o1 [Example 186, (R)-6-(3-(5-(3-Hydroxy-1-methyl-2-oxopyrrolidin-3-yl)isoxazol-3-yl)phenyl)-4-(2-methyloxazol-5-yl)picolinamide]	< 100 nM	100 to 500 nM		
CN1CC[C@@](O)(c2cc(-c3cccc(-c4ccc5ncoc5c4)c3)no2)C1=O [Example 69, (R)-3-(3-(3-(Benzo[d]oxazol-6-yl)phenyl)isoxazol-5-yl)-3-hydroxy-1-methylpyrrolidin-2-one]	> 501 nM	> 501 nM		
CN1CC[C@@](O)(c2cc(-c3cccc(-c4cc5cc[nH]c5c(C(N)=O)n4)c3)no2)C1=O [Example 139, (R)-5-(3-(5-(3-Hydroxy-1-methyl-2-oxopyrrolidin-3-yl)isoxazol-3-yl)phenyl)-1H-pyrrolo[2,3-c]pyridine-7-carboxamide]	< 100 nM	< 100 nM		
CC(=O)N1CC(Nc2sc(-c3cccc(-c4cc([C@]5(O)CCN(C)C5=O)on4)c3)nc2C(N)=O)C1 [Example 216, (R)-5-((1-Acetylazetidin-3-yl)amino)-2-(3-(5-(3-hydroxy-1-methyl-2-oxopyrrolidin-3-yl)isoxazol-3-yl)phenyl)thiazole-4-carboxamide]	< 100 nM	> 501 nM		
CN1CC[C@@](O)(c2cc(-c3cccc(-c4ccnc(C(N)=O)n4)c3)no2)C1=O [Example 162, (R)-4-(3-(5-(3-Hydroxy-1-methyl-2-oxopyrrolidin-3-yl)isoxazol-3-yl)phenyl)pyrimidine-2-carboxamide]	< 100 nM	> 501 nM		
CN1CCC(O)(c2cc(-c3cccc(-c4ncc5ccnc(N)c5n4)c3)on2)C1=O (racemic) [Example 165]	< 100 nM	> 501 nM		
CN1CC[C@@](O)(c2cc(-c3cccc(-c4cc(C(F)(F)F)c(N)c(C(N)=O)n4)c3)no2)C1=O [Example 50, (R)-3-Amino-6-(3-(5-(3-hydroxy-1-methyl-2-oxopyrrolidin-3-yl)isoxazol-3-yl)phenyl)-4-(trifluoromethyl)picolinamide]	< 100 nM	< 100 nM		
Cc1cn(-c2cccc(-c3cc([C@]4(O)CCN(C)C4=O)on3)c2)nc1C(N)=O [Example 192, (R)-1-(3-(5-(3-Hydroxy-1-methyl-2-oxopyrrolidin-3-yl)isoxazol-3-yl)phenyl)-4-methyl-1H-pyrazole-3-carboxamide]	< 100 nM	> 501 nM		
